# Molecular target: T1, Human GPR120 short form (Homo sapiens, UniProt Q5NUL3)
# T1 construct: expressed in transfected cells
# T1 sequence (Q5NUL3 1-361): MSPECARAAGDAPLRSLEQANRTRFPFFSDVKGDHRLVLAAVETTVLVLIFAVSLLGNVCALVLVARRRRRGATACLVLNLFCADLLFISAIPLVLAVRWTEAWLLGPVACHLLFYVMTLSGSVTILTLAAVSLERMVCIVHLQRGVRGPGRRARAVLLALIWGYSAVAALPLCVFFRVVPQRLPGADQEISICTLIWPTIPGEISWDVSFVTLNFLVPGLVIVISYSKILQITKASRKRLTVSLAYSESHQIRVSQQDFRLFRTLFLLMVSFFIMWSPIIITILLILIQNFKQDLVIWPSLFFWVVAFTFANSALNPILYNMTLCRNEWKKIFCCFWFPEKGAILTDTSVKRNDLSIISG
# Experiment: Human GPR120 calcium flux assay (FLIPR), Procedure Calcium A
# Assay type: cell-based
# Conditions: HEK-293 cells expressing human GPR120 short form, 2500 cells/well; read-out: GPR120 Ca2+ Assay A EC50
# Procedure, shortened: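 HEK293 cells stably expressing the short isoform (NM_001195755.1), 2500/well, starved 1 h, then loaded with Fluo-4 NW plus probenecid (30 min 37 °C, 15 min RT). Compound solutions 0.012–100 μM, 0.2% DMSO final; FLIPR read 300 s after addition. EC50 from Fmax−Fmin fitted to variable-slope sigmoid (Hill <2).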
row,Compound,EC50 [nM]
1,"O=C(O)CCc1cc(F)c(OCc2c(-c3ccc(Cl)c(F)c3)nsc2C(F)(F)F)c(F)c1F [Cpd 138, 3-(4-((3-(4-chloro-3-fluorophenyl)-5-(trifluoromethyl)isothiazol-4-yl)methoxy)-2,3,5-trifluorophenyl)propanoic acid]",137
2,"CCc1cc(CCC(=O)O)ccc1OCc1c(-c2ccc(Cl)cc2)nsc1C(F)(F)F [Cpd 162, 3-(4-[[3-(4-chlorophenyl)-5-(trifluoromethyl)-1,2-thiazol-4-yl]methoxy]-3-ethylphenyl)propanoic acid]",202
3,"O=C(O)CCc1cc(F)c(OCc2c(-c3ccc(Cl)cc3)nsc2C(F)(F)F)c(F)c1F [Cpd 116, 3-(4-((3-(4-chlorophenyl)-5-(trifluoromethyl)isothiazol-4-yl)methoxy)-2,3,5-trifluorophenyl)propanoic acid]",104
4,"Cc1c(CCC(=O)O)ccc(OCc2c(-c3ncc(Cl)cc3F)nsc2C(F)(F)F)c1C [Cpd 180, 3-(4-((3-(5-chloro-3-fluoropyridin-2-yl)-5-(trifluoromethyl)isothiazol-4-yl)methoxy)-2,3-dimethylphenyl)propanoic acid]",270
5,"Cc1ccc(-c2nsc(C(F)(F)F)c2COc2c(F)cc(CC(C)C(=O)O)cc2F)c(F)c1 (stereo not shown) [Cpd 76, 3-(3,5-difluoro-4-[[3-(2-fluoro-4-methylphenyl)-5-(trifluoromethyl)-1,2-thiazol-4-yl]methoxy]phenyl)-2-methylpropanoic acid]",42
6,"Cc1ccccc1-c1snc(Cl)c1COc1c(F)cc(CCC(=O)O)cc1F [Cpd 193, 3-(4-[[3-chloro-5-(2-methylphenyl)-1,2-thiazol-4-yl]methoxy]-3,5-difluorophenyl)propanoic acid]",344
7,"Cc1c(CCC(=O)O)ccc(OCc2c(-c3ccccc3)nsc2C(F)(F)F)c1C [Cpd 134, 3-(2,3-dimethyl-4-[[3-phenyl-5-(trifluoromethyl)-1,2-thiazol-4-yl]methoxy]phenyl)propanoic acid]",133
8,"O=C(O)CCc1c(F)c(F)c(OCc2c(-c3ccc(Cl)cc3)nsc2C(F)(F)F)c(F)c1F [Cpd 152, 3-(4-((3-(4-chlorophenyl)-5-(trifluoromethyl)isothiazol-4-yl)methoxy)-2,3,5,6-tetrafluorophenyl)propanoic acid]",173
9,"Cc1c(CCC(=O)O)ccc(OCc2c(-c3ccc(Cl)cc3)nsc2C(F)(F)F)c1C [Cpd 142, 3-(4-((3-(4-chlorophenyl)-5-(trifluoromethyl)isothiazol-4-yl)methoxy)-2,3-dimethylphenyl)propanoic acid]",155
10,"O=C(O)CCc1cc(F)c(OCc2c(-c3ncc(Cl)cc3F)nsc2C(F)(F)F)c(F)c1 [Cpd 153, 3-(4-((3-(5-chloro-3-fluoropyridin-2-yl)-5-(trifluoromethyl)isothiazol-4-yl)methoxy)-3,5-difluorophenyl)propanoic acid]",175
11,"OCC#Cc1cc(F)c(OCc2c(-c3ccc(Cl)cc3)nsc2C(F)(F)F)c(F)c1 [Cpd 213, 3-(4-[[3-(4-chlorophenyl)-5-(trifluoromethyl)-1,2-thiazol-4-yl]methoxy]-3,5-difluorophenyl)prop-2-yn-1-ol]",603
12,"OCCCc1cc(F)c(OCc2c(-c3ccc4c(c3)OCO4)csc2C(F)(F)F)c(F)c1 [Cpd 37, 3-(4-((4-(benzo[d][1,3]dioxol-5-yl)-2-(trifluoromethyl)thiophen-3-yl)methoxy)-3,5-difluorophenyl)propan-1-ol]",94

# Next, values leading:
row,EC50 [nM],Compound
1,41,"CCc1ccc(-c2nsc(C(F)(F)F)c2COc2ccc(CCC(=O)O)c(F)c2F)cc1 [Cpd 73, 3-(4-((3-(4-ethylphenyl)-5-(trifluoromethyl)isothiazol-4-yl)methoxy)-2,3-difluorophenyl)propanoic acid]"
2,56,"CCc1ccc(-c2snc(Cl)c2COc2ccc(CCC(=O)O)c(C)c2C)cc1 [Cpd 85, 3-(4-[[3-chloro-5-(4-ethylphenyl)-1,2-thiazol-4-yl]methoxy]-2,3-dimethylphenyl)propanoic acid]"
3,24,"CCc1ccc(-c2cc(F)sc2COc2ccc(CCC(=O)O)c(C)c2C)cc1 [Cpd 1, 3-(4-[[3-(4-ethylphenyl)-5-fluorothiophen-2-yl]methoxy]-2,3-dimethylphenyl)propanoic acid]"
4,51,"O=C(O)CCc1cc(F)c(OCc2c(-c3ccc(Cl)cc3)nsc2C(F)(F)F)c(F)c1 [Cpd 79, 3-(4-[[3-(4-chlorophenyl)-5-(trifluoromethyl)-1,2-thiazol-4-yl]methoxy]-3,5-difluorophenyl)propanoic acid]"
5,49,"Cc1c(CCC(=O)O)ccc(OCc2sc(F)cc2-c2ccc(Cl)cc2)c1C [Cpd 3, 3-(4-((3-(4-chlorophenyl)-5-fluorothiophen-2-yl)methoxy)-2,3-dimethylphenyl)propanoic acid]"
6,71,"OCCCc1cc(F)c(OCc2c(-c3ccc4c(c3)OCO4)nsc2C(F)(F)F)c(F)c1 [Cpd 93, 3-(4-[[3-(2H-1,3-benzodioxol-5-yl)-5-(trifluoromethyl)-1,2-thiazol-4-yl]methoxy]-3,5-difluorophenyl)propan-1-ol]"
7,76,"OCCCc1cc(F)c(OCc2c(-c3ccc(Cl)cc3)nsc2C(F)(F)F)c(F)c1 [Cpd 100, 3-(4-[[3-(4-chlorophenyl)-5-(trifluoromethyl)-1,2-thiazol-4-yl]methoxy]-3,5-difluorophenyl)propan-1-ol]"
8,78,"OCCCc1ccc(OCc2c(Cl)nsc2-c2ccc(Cl)cc2)c(F)c1F [Cpd 102, 3-(4-((3-chloro-5-(4-chlorophenyl)isothiazol-4-yl)methoxy)-2,3-difluorophenyl)propan-1-ol]"
9,13,"Cc1ccc(-c2nsc(C(F)(F)F)c2COc2c(F)cc(CCC(=O)O)cc2F)c(F)c1 [Cpd 65, 3-(3,5-difluoro-4-[[3-(2-fluoro-4-methylphenyl)-5-(trifluoromethyl)-1,2-thiazol-4-yl]methoxy]phenyl)propanoic acid]"
10,30,"3-(4-[[3-(4-ethylphenyl)-5-(trifluoromethyl)-1,2-thiazol-4-yl]methoxy]-3,5-difluorophenyl)propanoic acid [Cpd 70]"
11,42,"O=C(O)CCc1cc(F)c(OCc2c(-c3ccc(Cl)cc3F)nsc2C(F)(F)F)c(F)c1 [Cpd 74, 3-(4-((3-(4-chloro-2-fluorophenyl)-5-(trifluoromethyl)isothiazol-4-yl)methoxy)-3,5-difluorophenyl)propanoic acid]"
12,37,"O=C(O)CCc1cc(F)c(OCc2c(C3CCCC3)nsc2C(F)(F)F)c(F)c1 [Cpd 71, 3-(4-[[3-cyclopentyl-5-(trifluoromethyl)-1,2-thiazol-4-yl]methoxy]-3,5-difluorophenyl)propanoic acid]"
13,50,"3-(4-[[3-(4-ethylphenyl)-5-(trifluoromethyl)-1,2-thiazol-4-yl]methoxy]-1-benzothiophen-7-yl)propanoic acid [Cpd 92]"
14,25,"O=C(O)CCc1cc(F)c(OCc2c(-c3ccc(Cl)c(F)c3)nsc2C(F)(F)F)c(F)c1 [Cpd 67, 3-(4-((3-(4-chloro-3-fluorophenyl)-5-(trifluoromethyl)isothiazol-4-yl)methoxy)-3,5-difluorophenyl)propanoic acid]"
15,89,"CC(Cc1cc(F)c(OCc2c(-c3ccc(Cl)cc3)nsc2C(F)(F)F)c(F)c1)C(=O)O (stereo not shown) [Cpd 108, 3-(4-[[3-(4-chlorophenyl)-5-(trifluoromethyl)-1,2-thiazol-4-yl]methoxy]-3,5-difluorophenyl)-2-methylpropanoic acid]"
16,50,"3-(4-[[3-(4-chlorophenyl)-5-(trifluoromethyl)-1,2-thiazol-4-yl]methoxy]-3-methylphenyl)propanoic acid [Cpd 235]"
